Here are results for 122 compounds from a melting point compilation (Tetko et al.).

`CCOC(=O)c1ccc2nc(CCC(=O)O)c(=O)n(CC)c2c1` gave a melting point of 181 to 185 °C.
For `O=C(O)c1cc2cc(Br)ccc2[nH]1`, the melting point lay within 283 to 285 °C.
In turn, `c1ccc2[nH]c(C3CC3)nc2c1` came in with a melting point of 232 to 234 °C.
The same measure for `N#CCc1ccc(OCc2ccccn2)cc1`: 76 to 78 °C; for `Nc1nc(-c2ccc(N3CCCC3=O)cc2)cs1`: 283 to 285 °C.
`COc1ccc(CCc2nnc(N)o2)cc1` gave a melting point of 216 to 218 °C.
The same measure for `Nc1ccn(-c2ccccc2)n1`: 77 to 79 °C.
The compound `CCSc1cccc(C(=O)O)c1` came in with a melting point of 95 to 97 °C.
Next, `OCc1cccc2nccn12`: 154 to 156 °C; `CC1CCCC(C)N1C(=O)c1cc(Cl)ccc1N` (configuration not stated): 169 to 171 °C.
As to `COc1ccc(OC)c(NC(=O)C(C)Cl)c1` (configuration not stated), the melting point fell in the range of 56 to 58 °C.
Next, `Cc1cccc(OC(C)C(=O)NN)c1C` (configuration not stated): 140 to 144 °C; `COc1ccc(C=O)cc1OCc1ccc([N+](=O)[O-])cc1`: 109 to 111 °C.
Compound `Cn1c(CO)nc2ccccc21` had a melting point of 144 to 146 °C.
The same measure for `Cc1nc(N)ccc1I`: 99 to 100 °C.
Consider `CN1CCc2cc(C=O)ccc21`, for which the melting point lay within 38 to 40 °C.
As for `NC1(C(=O)O)CCCCC1`, the melting point was in the range of 300 to 302 °C.
The same measure for `c1cnc(N2CCNCC2)cn1`: 48 to 50 °C; for `O=C(Nc1ccc(F)cc1)OCC(F)(F)F`: 76 to 80 °C; for `NC(=S)COc1ccccc1-c1ccccc1`: 177 to 179 °C.
In turn, `O=C(c1ccccc1)C1CCOCC1` yielded a melting point of 57 to 59 °C.
Turning to `COc1ccc(C(=O)N2CCN(C)CC2)cc1N`, the melting point lay in the range of 114 to 116 °C.
Next, `O=C1COCC(=O)N1`: 141 to 143 °C; `Cc1ccc(Oc2ccc(O)cc2)cc1`: 71 to 73 °C; `Cc1c(C(=O)O)oc2c1C(=O)CCC2`: 227 to 229 °C.
Compound `NC(=S)N1CCCC1` displayed a melting point of 140 to 142 °C.
`Nc1cccc(CN2CCOCC2)n1`: the melting point lay in the range of 129 to 131 °C.
Next, `Nc1ccc2c(c1)C(=O)NCC2`: 119 to 121 °C; `CC(c1nnc(S)n1-c1ccc(F)cc1)N(C)C` (configuration not stated): 169 to 171 °C.
The same measure for `N#CCC(C(=O)O)c1ccccc1` (configuration not stated): 64 to 66 °C; for `CC(=O)c1sc(N)nc1-c1ccccc1`: 145 to 147 °C.
`O=C(O)CN1C(=O)COc2ccc(S(=O)(=O)Cl)cc21` displayed a melting point of 159 to 161 °C.
Compound `Cc1c(C(=O)O)cccc1S(=O)(=O)Cl` had a melting point of 169 to 171 °C.
The same measure for `O=C(O)c1ccc(NC(=O)c2ccccc2I)cc1`: 275 to 277 °C.
On to `Cc1nc(Cl)nc(Cl)c1[N+](=O)[O-]`, for which the melting point lay within 52 to 54 °C.
Next, `Nc1ccc(F)c(S(=O)(=O)NC2CC2)c1`: 107 to 109 °C; `Cn1c(S)nc2sccc2c1=O`: 317 to 319 °C; `CC(C)(C)OC(=O)NC(C)(C(=O)O)C1CC1` (configuration not stated): 140 to 142 °C.
As to `CNC(C)C(=O)O` (configuration not stated), the melting point fell in the range of 268 to 270 °C.
`O=C(O)c1cccn1Cc1ccccn1`: the melting point lay in the range of 172 to 174 °C.
As to `O=C(O)c1cnn(-c2ccccn2)c1C(F)(F)F`, the melting point is 156 to 158 °C.
In turn, `Fc1ccccc1-c1nnc(S)n1Cc1ccccc1` came in with a melting point of 90 to 92 °C.
The compound `CC(C)(C)OC(=O)N1CCN(c2nc(N)ns2)CC1` had a melting point of 196 to 198 °C.
`O=Cc1ccc(OCc2ccccc2)c(Br)c1`: the melting point lay within 96 to 98 °C.
As to `O=C(CCl)c1c[nH]c2ccccc12`, the melting point is 183 to 185 °C.
The same measure for `NC(=NO)c1ccc(N2CCCCC2)nc1`: 165 to 167 °C.
In turn, `FC(F)n1ccnc1Cn1cc(Br)cn1` yielded a melting point of 79 to 81 °C.
`C=CCn1c(=O)c2ccccc2n2c(S)nnc12` displayed a melting point of 177 to 179 °C.
Take `N#CCCn1cc(C(=O)O)c(-c2cccc(Br)c2)n1`: the melting point lay in the range of 154 to 156 °C.
As to `Cc1nn(Cc2ccc(Cl)cc2)c(O)c1C=O`, the melting point was in the range of 179 to 181 °C.
As for `O=C(O)c1coc(C#Cc2ccccc2)c1`, the melting point was 183 to 185 °C.
`CC(C)(C)c1nccc(=O)[nH]1` returned a melting point of 205 to 207 °C.
`NC(=S)Cn1ccc(=O)[nH]c1=O` gave a melting point of 256 to 258 °C.
The compound `NC(=NO)C12CC3CC(CC(C3)C1)C2` showed a melting point of 152 to 154 °C.
Compound `CC(N)(C#N)Cn1cc(Br)cn1` (configuration not stated) came in with a melting point of 60 to 62 °C.
Regarding `CC(C)(C)c1ncc(N)cn1`, the melting point was 119 to 121 °C.
In the case of `O=C1CNC(=O)N1c1cccc([N+](=O)[O-])c1`, the melting point was 164 to 166 °C.
The compound `COC(=O)c1cc([N+](=O)[O-])cc(S(C)(=O)=O)c1` gave a melting point of 134 to 136 °C.
Next, `CNC(=O)c1c[nH]c2ccccc12`: 203 to 205 °C; `NCC1CCN(C(=O)c2ccccc2)CC1`: 70 to 72 °C; `COC(=O)c1cc(S(=O)(=O)Cl)c(Br)cc1F`: 105 to 107 °C.
Next, `CCc1ccc(C(=O)O)cc1S(=O)(=O)N1CCOCC1`: 159 to 161 °C; `COc1cc(C(C)=O)ccc1S(=O)(=O)C(F)F`: 134 to 136 °C.
As to `COC(=O)[C@@H]1C[C@@H](O)CN1C(=O)C12CC3CC(CC(C3)C1)C2`, the melting point is 158 to 160 °C.
With `Cc1nn(C)c(C)c1OCC(=O)O`, the melting point was in the range of 172 to 174 °C.
`N#CC(C(=O)CCl)c1nc2ccccc2c(=O)[nH]1` (configuration not stated) yielded a melting point of 216 to 218 °C.
As to `Cc1nc(-c2cccc(N)c2)[nH]c1C`, the melting point is 235 to 237 °C.
The same measure for `Cc1cc(CNCc2cc(C)c(O)c(C)c2)cc(C)c1O`: 249 to 251 °C; for `CC(C)CN(CC(C)C)C(=O)CC(=O)N(CC(C)C)CC(C)C`: 51 to 53 °C; for `COc1ccc(-n2c(S)nc3sc4c(c3c2=O)CCCC4)cc1`: 312 to 314 °C.
Next, `NC(=O)CC1CC2CCC1C2` (configuration not stated): 152 to 154 °C.
Next, `Nn1c(S)nnc1COc1ccccc1`: 163 to 167 °C.
For the compound `NC(=O)c1cc(N)c(F)cc1F`, the melting point lay within 169 to 171 °C.
Take `OC(c1ccc(Cl)cc1)C1CCNCC1` (configuration not stated): the melting point was in the range of 139 to 141 °C.
Next, `Cc1ccc(NC(=O)C2(CN)CCCC2)cc1C`: 113 to 115 °C.
Compound `Cc1ccc(NC(=O)CO)c(Cl)c1` came in with a melting point of 90 to 92 °C.
In the case of `COC(=O)c1ccccc1CS(=O)(=O)Cl`, the melting point was 85 to 87 °C.
With `CC(Cl)C(=O)NCCc1ccc(S(N)(=O)=O)cc1` (configuration not stated), the melting point fell in the range of 159 to 161 °C.
For the compound `CN(C)CCNC(=O)Cc1ccc(N)cc1`, the melting point lay in the range of 145 to 147 °C.
In the case of `NC(=O)c1ccc(S(N)(=O)=O)c(N)c1`, the melting point was in the range of 202 to 204 °C.
Turning to `CC(=O)CSc1ccccc1[N+](=O)[O-]`, the melting point lay within 74 to 76 °C.
`Nc1cc(Cl)cc(Br)c1O` registered a melting point of 83 to 85 °C.
`COc1ccc(OC)c(C=NO)c1` yielded a melting point of 94 to 96 °C.
In turn, `NC(=O)Cc1ccccc1Cl` showed a melting point of 178 to 180 °C.
The same measure for `Nc1ccc2c(c1)CCC(=O)N2`: 170 to 172 °C.
On to `FC(F)Sc1ccc(Nc2nnc(S)s2)cc1`, for which the melting point lay in the range of 188 to 190 °C.
On to `Nc1oc2ccccc2c(=O)c1C=O`, for which the melting point fell in the range of 249 to 251 °C.
Next, `ClCc1nnnn1-c1ccccc1Br`: 45 to 47 °C; `CCn1c(S)nc2ccccc21`: 135 to 137 °C.
`O=c1cc(CO)c2ccc(O)cc2o1` showed a melting point of 221 to 223 °C.
Compound `CC(Sc1nnnn1C1CC1)C(=O)O` (configuration not stated) came in with a melting point of 116 to 118 °C.
On to `CC(=O)NC1CNc2ccccc2C1` (configuration not stated), for which the melting point lay in the range of 124 to 126 °C.
In turn, `NNC(=O)NCC(F)(F)F` showed a melting point of 68 to 70 °C.
`O=C(O)c1ccc(Cl)c(S(=O)(=O)NC2CC2)c1` had a melting point of 221 to 224 °C.
Take `CCOC(=O)C(=O)CC(=O)c1ccc(OC)cc1`: the melting point lay in the range of 51 to 53 °C.
`COc1ccc(S(=O)(=O)Nc2cccc(CN)c2)cc1`: the melting point was 125 to 127 °C.
In the case of `CN(C)S(=O)(=O)c1cccc(CCl)c1`, the melting point is 45 to 47 °C.
Next, `CCC(O)c1ccc(O)cc1` (configuration not stated): 81 to 83 °C; `O=Cc1ccc(Oc2ccc(Cl)cc2[N+](=O)[O-])cc1`: 69 to 71 °C.
With `Cc1nn(-c2ccccc2)c(C(F)F)c1C(=O)O`, the melting point was in the range of 206 to 208 °C.
In turn, `O=C(O)C1CSc2ccccc2O1` (configuration not stated) yielded a melting point of 126 to 128 °C.
Next, `COCCOc1ccc(C(=O)O)cc1`: 151 to 153 °C; `CCOC(=O)C(=O)C=Cc1ccsc1`: 53 to 55 °C; `NNc1cnccn1`: 109 to 113 °C.
The compound `NC(=O)CCCl` registered a melting point of 142 to 144 °C.
Next, `CC1CN(c2ccccc2N)CC(C)O1` (configuration not stated): 83 to 85 °C; `COCCc1ccc2oc(N)nc2c1`: 159 to 161 °C; `C#CCNC(=O)c1cccnc1Cl`: 107 to 109 °C.
Next, `O=C(O)Cn1c(COc2ccccc2)nc2ccccc21`: 199 to 201 °C; `CC(=O)N(c1ccc(C(F)(F)F)cc1)c1nc(C=O)cs1`: 138 to 140 °C; `O=C(c1ccc(F)cc1)c1ccccn1`: 83 to 85 °C.
`ClCc1nc2cccnc2s1` came in with a melting point of 65 to 67 °C.
`O=C(c1cccnc1)c1ccc2c(c1)CCO2` yielded a melting point of 108 to 110 °C.
For `O=C(O)CCOc1cccc([N+](=O)[O-])c1`, the melting point was 111 to 113 °C.
`CC(=O)NCCc1ccc(S(=O)(=O)Cl)cc1` registered a melting point of 131 to 133 °C.
On to `Cn1c(=O)oc2cc(C(=O)CCl)ccc21`, for which the melting point lay within 159 to 161 °C.
Consider `CCCCC1CCC(C(=O)CC#N)CC1` (configuration not stated), for which the melting point lay within 52 to 54 °C.
`Cc1cc2ncc(C=O)cn2n1`: the melting point was 149 to 151 °C.
On to `CN1C(=O)CCC(C(N)=O)C1c1ccc(C(F)(F)F)cc1` (configuration not stated), for which the melting point lay within 239 to 241 °C.
The compound `O=C(O)CCCNC(=O)c1ccco1` gave a melting point of 91 to 93 °C.
As for `N#CCc1nnc2n1CCCCC2`, the melting point fell in the range of 113 to 115 °C.
In the case of `COC(=O)c1n[nH]c(=O)c2ccccc12`, the melting point is 127 to 129 °C.

A word on the melting point: it is the temperature, or range, at which the solid turns liquid.
